Laboratory results reported in ChEMBL document CHEMBL2040781, “Design, synthesis, and biological evaluation of chromone-based p38 MAP kinase inhibitors” (J Med Chem, 2011).
Activity calls are given as the source filed them. The calls are words filed in the database; no cut-off is given here.

Tests used:
[1] = molecular target: Cyclin-dependent kinase 1/cyclin B1 (Homo sapiens) (UniProt P06493+P14635); assay: Inhibition of human CDK1/cyclinB assessed as remaining activity at 0.8 uM after 40 mins by scintillation counting; assay type: protein-complex assay
[2] = molecular target: MAP kinase-activated protein kinase 2 (Homo sapiens) (UniProt P49137); assay: Inhibition of human MAPKAP-K2 assessed as remaining activity at 0.8 uM after 40 mins by scintillation counting
Chain of MAP kinase-activated protein kinase 2 (Homo sapiens) (P49137 whole entry, looked up): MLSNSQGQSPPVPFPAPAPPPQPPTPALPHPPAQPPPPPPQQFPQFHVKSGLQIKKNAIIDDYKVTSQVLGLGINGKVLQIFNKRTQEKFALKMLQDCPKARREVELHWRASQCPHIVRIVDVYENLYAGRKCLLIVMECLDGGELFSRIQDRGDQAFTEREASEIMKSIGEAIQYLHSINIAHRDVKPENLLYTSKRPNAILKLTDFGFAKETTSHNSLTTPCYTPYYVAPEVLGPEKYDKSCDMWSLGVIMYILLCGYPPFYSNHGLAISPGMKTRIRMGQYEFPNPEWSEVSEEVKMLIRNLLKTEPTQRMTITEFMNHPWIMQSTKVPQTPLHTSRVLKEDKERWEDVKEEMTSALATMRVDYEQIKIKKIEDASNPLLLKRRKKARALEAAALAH

[3] = molecular target: RAF proto-oncogene serine/threonine-protein kinase (Homo sapiens) (UniProt P04049); assay: Inhibition of human RAF assessed as remaining activity at 0.8 uM after 40 mins by scintillation counting
Chain of RAF proto-oncogene serine/threonine-protein kinase (Homo sapiens) (P04049 whole entry): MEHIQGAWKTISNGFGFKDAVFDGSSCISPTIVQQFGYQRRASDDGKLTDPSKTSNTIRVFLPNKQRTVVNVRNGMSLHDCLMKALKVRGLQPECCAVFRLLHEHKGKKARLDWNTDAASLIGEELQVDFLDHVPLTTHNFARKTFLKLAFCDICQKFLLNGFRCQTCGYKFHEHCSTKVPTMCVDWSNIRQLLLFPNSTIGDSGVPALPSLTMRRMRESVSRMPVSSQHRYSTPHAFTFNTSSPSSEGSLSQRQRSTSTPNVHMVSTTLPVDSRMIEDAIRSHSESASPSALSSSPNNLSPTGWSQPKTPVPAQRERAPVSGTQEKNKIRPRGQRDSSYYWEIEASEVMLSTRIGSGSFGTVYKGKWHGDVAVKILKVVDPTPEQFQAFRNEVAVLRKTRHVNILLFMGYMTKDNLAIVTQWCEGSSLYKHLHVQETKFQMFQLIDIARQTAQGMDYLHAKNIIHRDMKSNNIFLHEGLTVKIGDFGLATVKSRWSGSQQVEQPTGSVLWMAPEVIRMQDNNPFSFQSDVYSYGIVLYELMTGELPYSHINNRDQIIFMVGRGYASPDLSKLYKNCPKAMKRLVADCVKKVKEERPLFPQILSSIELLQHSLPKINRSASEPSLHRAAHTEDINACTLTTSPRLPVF

[4] = molecular target: Mitogen-activated protein kinase 9 (Homo sapiens) (UniProt P45984); assay: Inhibition of human JNK2alpha2 assessed as remaining activity at 0.8 uM after 40 mins by scintillation counting
Chain of Mitogen-activated protein kinase 9 (Homo sapiens) (P45984 whole entry, looked up): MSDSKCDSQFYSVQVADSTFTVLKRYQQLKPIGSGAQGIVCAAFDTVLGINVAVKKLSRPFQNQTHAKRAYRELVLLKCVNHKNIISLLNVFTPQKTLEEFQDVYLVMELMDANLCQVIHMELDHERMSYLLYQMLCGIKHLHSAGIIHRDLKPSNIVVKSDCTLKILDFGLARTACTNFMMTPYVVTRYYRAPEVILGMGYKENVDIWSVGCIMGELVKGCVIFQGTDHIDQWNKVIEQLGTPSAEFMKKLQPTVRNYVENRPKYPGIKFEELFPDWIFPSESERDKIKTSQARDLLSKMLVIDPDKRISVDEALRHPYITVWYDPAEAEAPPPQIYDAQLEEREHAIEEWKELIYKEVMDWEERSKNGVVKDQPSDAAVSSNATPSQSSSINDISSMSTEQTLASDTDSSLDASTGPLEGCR

[5] = molecular target: Serine/threonine-protein kinase PAK 2 (Homo sapiens) (UniProt Q13177); assay: Inhibition of human PAK2 assessed as remaining activity at 0.8 uM after 40 mins by scintillation counting
[6] = molecular target: Mitogen-activated protein kinase 1 (Homo sapiens) (UniProt P28482); assay: Inhibition of human MAPK1 assessed as remaining activity at 0.8 uM after 40 mins by scintillation counting
[7] = molecular target: Mitogen-activated protein kinase 13 (Homo sapiens) (UniProt O15264); assay: Inhibition of human SAPK4 assessed as remaining activity at 0.8 uM after 40 mins by scintillation counting
Chain of Mitogen-activated protein kinase 13 (Homo sapiens) (O15264 whole entry): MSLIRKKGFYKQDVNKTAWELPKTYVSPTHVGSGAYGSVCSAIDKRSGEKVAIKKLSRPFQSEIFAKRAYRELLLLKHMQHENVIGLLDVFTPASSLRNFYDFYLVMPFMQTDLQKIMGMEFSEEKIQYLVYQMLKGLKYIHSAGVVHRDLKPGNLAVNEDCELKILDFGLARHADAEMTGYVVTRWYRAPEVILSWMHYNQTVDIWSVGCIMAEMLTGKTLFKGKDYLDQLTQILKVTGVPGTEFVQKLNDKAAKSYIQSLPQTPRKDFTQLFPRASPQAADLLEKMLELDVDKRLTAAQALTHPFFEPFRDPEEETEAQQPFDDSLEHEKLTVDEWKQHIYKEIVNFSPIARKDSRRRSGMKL

[8] = molecular target: Casein kinase II subunit alpha' (Homo sapiens) (UniProt P19784); assay: Inhibition of human CK2alpha2 assessed as remaining activity at 0.8 uM after 40 mins by scintillation counting
[9] = molecular target: Tyrosine-protein kinase Fyn (Homo sapiens) (UniProt P06241); assay: Inhibition of human Fyn assessed as remaining activity at 0.8 uM after 40 mins by scintillation counting
Chain of Tyrosine-protein kinase Fyn (Homo sapiens) (P06241 2-537 limits assumed): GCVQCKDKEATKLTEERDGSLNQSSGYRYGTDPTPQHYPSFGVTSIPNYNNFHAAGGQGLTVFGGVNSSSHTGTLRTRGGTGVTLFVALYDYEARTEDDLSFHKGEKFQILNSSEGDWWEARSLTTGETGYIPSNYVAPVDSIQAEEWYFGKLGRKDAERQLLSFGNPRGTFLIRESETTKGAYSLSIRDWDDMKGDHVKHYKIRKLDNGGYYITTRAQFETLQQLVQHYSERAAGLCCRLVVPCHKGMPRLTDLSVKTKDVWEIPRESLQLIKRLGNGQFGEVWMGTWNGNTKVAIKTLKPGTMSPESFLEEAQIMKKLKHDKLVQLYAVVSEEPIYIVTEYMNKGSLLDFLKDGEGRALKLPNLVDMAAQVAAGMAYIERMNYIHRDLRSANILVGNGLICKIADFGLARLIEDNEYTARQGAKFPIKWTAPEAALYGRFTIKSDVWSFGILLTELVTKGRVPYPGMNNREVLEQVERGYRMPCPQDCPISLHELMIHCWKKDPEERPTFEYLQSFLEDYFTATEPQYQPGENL

[10] = molecular target: 5'-AMP-activated protein kinase catalytic subunit alpha-1 (Homo sapiens) (UniProt Q13131); assay: Inhibition of human AMPKalpha1 assessed as remaining activity at 0.8 uM after 40 mins by scintillation counting
[11] = tested on: MDA-MB-436; assay: Antiproliferative activity against human MDA-MB-436 cells at 1 uM after 4 hrs by prestoblue cell viability assay; assay type: functional, cell-based
[12] = molecular target: Tyrosine-protein kinase receptor TYRO3 (Homo sapiens) (UniProt Q06418); assay: Inhibition of human Rse assessed as remaining activity at 0.8 uM after 40 mins by scintillation counting
[13] = organism: Homo sapiens; assay: Inhibition of human PKA assessed as remaining activity at 0.8 uM after 40 mins by scintillation counting
[14] = molecular target: Cyclin-dependent kinase 2/cyclin A (Homo sapiens) (UniProt P24941+P20248+P78396); assay: Inhibition of human CDK2/cyclinA assessed as remaining activity at 0.8 uM after 40 mins by scintillation counting; assay type: protein-complex assay
[15] = molecular target: Platelet-derived growth factor receptor beta (Homo sapiens) (UniProt P09619); assay: Inhibition of human PDGFRbeta assessed as remaining activity at 0.8 uM after 40 mins by scintillation counting
[16] = molecular target: Serine/threonine-protein kinase Nek2 (Homo sapiens) (UniProt P51955); assay: Inhibition of human NEK2 assessed as remaining activity at 0.8 uM after 40 mins by scintillation counting
[17] = molecular target: Casein kinase I isoform gamma-1 (Homo sapiens) (UniProt Q9HCP0); assay: Inhibition of human CK1gamma1 assessed as remaining activity at 0.8 uM after 40 mins by scintillation counting
[18] = tested on: MCF7; assay: Antiproliferative activity against human MCF7 cells at 1 uM after 4 hrs by prestoblue cell viability assay; assay type: functional, cell-based
[19] = molecular target: Mitogen-activated protein kinase 12 (Homo sapiens) (UniProt P53778); assay: Inhibition of human SAPK3 assessed as remaining activity at 0.8 uM after 40 mins by scintillation counting
Chain of Mitogen-activated protein kinase 12 (Homo sapiens) (P53778 whole entry): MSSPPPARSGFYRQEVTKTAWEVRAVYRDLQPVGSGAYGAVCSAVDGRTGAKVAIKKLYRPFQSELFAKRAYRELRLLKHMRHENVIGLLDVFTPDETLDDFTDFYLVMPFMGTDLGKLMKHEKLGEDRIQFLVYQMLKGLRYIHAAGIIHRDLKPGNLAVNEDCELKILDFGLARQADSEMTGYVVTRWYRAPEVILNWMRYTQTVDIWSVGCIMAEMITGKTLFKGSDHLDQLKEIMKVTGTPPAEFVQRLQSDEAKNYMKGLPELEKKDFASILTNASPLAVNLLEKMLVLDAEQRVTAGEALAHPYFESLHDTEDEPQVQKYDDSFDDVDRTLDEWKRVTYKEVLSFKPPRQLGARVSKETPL

[20] = molecular target: Eukaryotic elongation factor 2 kinase (Homo sapiens) (UniProt O00418); assay: Inhibition of human eEF-2K assessed as remaining activity at 0.8 uM after 40 mins by scintillation counting
Chain of Eukaryotic elongation factor 2 kinase (Homo sapiens) (O00418 whole entry): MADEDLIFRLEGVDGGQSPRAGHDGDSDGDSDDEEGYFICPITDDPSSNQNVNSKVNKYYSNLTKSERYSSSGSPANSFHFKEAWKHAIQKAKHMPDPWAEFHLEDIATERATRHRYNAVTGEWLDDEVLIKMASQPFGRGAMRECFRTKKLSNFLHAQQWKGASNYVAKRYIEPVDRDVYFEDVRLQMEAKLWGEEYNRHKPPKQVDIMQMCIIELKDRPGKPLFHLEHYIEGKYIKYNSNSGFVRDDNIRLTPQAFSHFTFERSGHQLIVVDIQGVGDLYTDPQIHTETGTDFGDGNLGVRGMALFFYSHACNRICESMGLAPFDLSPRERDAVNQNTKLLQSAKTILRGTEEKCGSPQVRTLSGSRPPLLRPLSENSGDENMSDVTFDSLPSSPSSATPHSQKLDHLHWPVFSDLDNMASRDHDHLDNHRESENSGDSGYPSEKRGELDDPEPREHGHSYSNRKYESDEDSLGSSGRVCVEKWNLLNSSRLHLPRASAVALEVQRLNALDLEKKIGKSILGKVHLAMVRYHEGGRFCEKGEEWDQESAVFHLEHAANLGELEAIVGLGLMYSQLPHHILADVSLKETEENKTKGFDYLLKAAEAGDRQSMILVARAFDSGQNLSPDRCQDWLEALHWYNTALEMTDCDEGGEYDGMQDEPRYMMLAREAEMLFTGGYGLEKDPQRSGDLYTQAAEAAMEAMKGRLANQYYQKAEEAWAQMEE

[21] = molecular target: Ribosomal protein S6 kinase beta-1 (Homo sapiens) (UniProt P23443); assay: Inhibition of human p70S6K assessed as remaining activity at 0.8 uM after 40 mins by scintillation counting
[22] = molecular target: SRSF protein kinase 1 (Homo sapiens) (UniProt Q96SB4); assay: Inhibition of human SRPK1 assessed as remaining activity at 0.8 uM after 40 mins by scintillation counting
Chain of SRSF protein kinase 1 (Homo sapiens) (Q96SB4 whole entry): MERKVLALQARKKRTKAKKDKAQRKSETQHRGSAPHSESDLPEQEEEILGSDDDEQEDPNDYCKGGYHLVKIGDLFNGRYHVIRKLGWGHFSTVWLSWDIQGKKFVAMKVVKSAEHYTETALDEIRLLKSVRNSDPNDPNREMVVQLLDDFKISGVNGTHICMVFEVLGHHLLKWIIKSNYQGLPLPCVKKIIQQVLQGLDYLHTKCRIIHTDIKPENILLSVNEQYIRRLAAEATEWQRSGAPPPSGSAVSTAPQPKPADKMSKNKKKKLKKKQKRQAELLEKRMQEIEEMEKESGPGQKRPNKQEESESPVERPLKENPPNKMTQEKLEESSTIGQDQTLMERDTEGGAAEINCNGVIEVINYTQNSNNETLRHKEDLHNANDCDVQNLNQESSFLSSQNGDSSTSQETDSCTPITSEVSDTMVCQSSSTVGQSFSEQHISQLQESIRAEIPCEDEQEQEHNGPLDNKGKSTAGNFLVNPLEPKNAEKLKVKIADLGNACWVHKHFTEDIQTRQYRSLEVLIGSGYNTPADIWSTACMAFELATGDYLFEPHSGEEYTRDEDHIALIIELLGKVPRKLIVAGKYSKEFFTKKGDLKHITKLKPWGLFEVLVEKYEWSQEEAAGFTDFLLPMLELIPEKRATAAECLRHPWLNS

[23] = molecular target: Mitogen-activated protein kinase 8 (Homo sapiens) (UniProt P45983); assay: Inhibition of human JNK1alpha1 assessed as remaining activity at 0.8 uM after 40 mins by scintillation counting
[24] = molecular target: ALK tyrosine kinase receptor (Homo sapiens) (UniProt Q9UM73); assay: Inhibition of human ALK assessed as remaining activity at 0.8 uM after 40 mins by scintillation counting
[25] = molecular target: Ephrin type-B receptor 4 (Homo sapiens) (UniProt P54760); assay: Inhibition of human EphB4 assessed as remaining activity at 0.8 uM after 40 mins by scintillation counting
[26] = organism: Homo sapiens; assay: Inhibition of human PI3K assessed as remaining activity at 0.8 uM after 40 mins by scintillation counting
[27] = molecular target: T1, Mitogen-activated protein kinase 14 (Homo sapiens, UniProt Q16539); assay: Inhibition of human SAPK2a assessed as remaining activity at 0.8 uM after 40 mins by scintillation counting
T1 sequence (Q16539 whole entry): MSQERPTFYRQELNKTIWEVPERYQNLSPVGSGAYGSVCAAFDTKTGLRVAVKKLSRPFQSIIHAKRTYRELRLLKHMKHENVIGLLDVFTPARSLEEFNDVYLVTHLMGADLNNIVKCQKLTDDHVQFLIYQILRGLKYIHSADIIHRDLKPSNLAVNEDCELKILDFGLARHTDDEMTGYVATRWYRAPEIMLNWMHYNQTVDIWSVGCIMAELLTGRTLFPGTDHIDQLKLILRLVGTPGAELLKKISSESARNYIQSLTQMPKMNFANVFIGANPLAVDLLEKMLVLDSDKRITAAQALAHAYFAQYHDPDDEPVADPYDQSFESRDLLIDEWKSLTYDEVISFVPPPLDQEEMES

[28] = molecular target: Cyclin-dependent kinase 7/ cyclin H (Homo sapiens) (UniProt P51946+P50613); assay: Inhibition of human CDK7/cyclinH/MAT1 assessed as remaining activity at 0.8 uM after 40 mins by scintillation counting; assay type: protein-complex assay
[29] = molecular target: Serine/threonine-protein kinase 4 (Homo sapiens) (UniProt Q13043); assay: Inhibition of human MST1 assessed as remaining activity at 0.8 uM after 40 mins by scintillation counting
[30] = molecular target: T1, Mitogen-activated protein kinase 14; assay: Inhibition of p38alpha MAPK after 40 mins by scintillation counting
[31] = molecular target: Mitogen-activated protein kinase 11 (Homo sapiens) (UniProt Q15759); assay: Inhibition of human SAPK2b assessed as remaining activity at 0.8 uM after 40 mins by scintillation counting
[32] = molecular target: Mitogen-activated protein kinase 10 (Homo sapiens) (UniProt P53779); assay: Inhibition of human JNK3 assessed as remaining activity at 0.8 uM after 40 mins by scintillation counting
[33] = molecular target: Serine/threonine-protein kinase pim-1 (Homo sapiens) (UniProt P11309); assay: Inhibition of human Pim-1 assessed as remaining activity at 0.8 uM after 40 mins by scintillation counting
Chain of Serine/threonine-protein kinase pim-1 (Homo sapiens) (P11309 whole entry, looked up): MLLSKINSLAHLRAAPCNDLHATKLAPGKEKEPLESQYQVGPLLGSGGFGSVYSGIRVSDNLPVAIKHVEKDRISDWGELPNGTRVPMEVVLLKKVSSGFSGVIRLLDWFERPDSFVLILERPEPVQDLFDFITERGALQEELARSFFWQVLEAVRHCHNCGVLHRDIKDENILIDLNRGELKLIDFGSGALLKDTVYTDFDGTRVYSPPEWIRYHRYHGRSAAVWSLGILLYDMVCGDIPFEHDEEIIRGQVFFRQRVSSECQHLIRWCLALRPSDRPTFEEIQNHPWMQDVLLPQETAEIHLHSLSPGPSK

[34] = molecular target: Ephrin type-A receptor 5 (Homo sapiens) (UniProt P54756); assay: Inhibition of human EphA5 assessed as remaining activity at 0.8 uM after 40 mins by scintillation counting
[35] = molecular target: cGMP-dependent protein kinase 1 (Homo sapiens) (UniProt Q13976); assay: Inhibition of human PKG1alpha assessed as remaining activity at 0.8 uM after 40 mins by scintillation counting
[36] = molecular target: Tyrosine-protein kinase ABL1 (Homo sapiens) (UniProt P00519); assay: Inhibition of human Abl assessed as remaining activity at 0.8 uM after 40 mins by scintillation counting

SMILES | Activity [1] [%] | Activity [2] [%] | Activity [3] [%] | Activity [4] [%] | Activity [5] [%] | Activity [6] [%] | Activity [7] [%] | Activity [8] [%] | Activity [9] [%] | Activity [10] [%] | Activity [11] | Activity [12] [%] | Activity [13] [%] | Activity [14] [%] | Activity [15] [%] | Activity [16] [%] | Activity [17] [%] | Activity [18] | Activity [19] [%] | Activity [20] [%] | further results
CC(C)Nc1cc(-c2oc3ccccc3c(=O)c2-c2ccc(F)cc2)ccn1 | 95 | 104 | 73 | 58 | 106 | 82 | 104 | 105 | 100 | 97 | inactive | 98 | 114 | 95 | 107 | 98 | 94 | inactive | 96 | 100 | Activity [21]: 102%; Activity [22]: 109%; Activity [23]: 84%; Activity [24]: 88%; Activity [25]: 97%; Activity [26]: 100%; Activity [27]: -3%; Activity [28]: 100%; Activity [29]: 99%; IC50 [30]: 0.017 µM; Activity [31]: -3%; Activity [32]: 21%; Activity [33]: 100%; Activity [34]: 103%; Activity [35]: 104%; Activity [36]: 111%
O=c1c(-c2ccc(F)cc2)c(-c2ccnc(NC3CCCCC3)c2)oc2ccccc12 | 93 | 99 | 83 | 71 | 104 | 87 | 112 | 104 | 103 | 102 | inactive | 91 | 118 | 101 | 105 | 98 | 97 | inactive | 97 | 101 | Activity [21]: 102%; Activity [22]: 116%; Activity [23]: 96%; Activity [24]: 91%; Activity [25]: 98%; Activity [26]: 100%; Activity [27]: -1%; Activity [28]: 101%; Activity [29]: 93%; IC50 [30]: 0.034 µM; Activity [31]: 9%; Activity [32]: 24%; Activity [33]: 97%; Activity [34]: 104%; Activity [35]: 102%; Activity [36]: 106%
